Source: PMC5988692, “AZ304, a novel dual BRAF inhibitor, exerts anti-tumour effects in colorectal cancer independently of BRAF genetic status” (British Journal of Cancer, 2018)
Where two headings read alike, the source gives them in different places.

Key:
HT-29 cells = assay: MTT proliferation assay; format: cell-based; settings: Homo sapiens, HT-29, BRAF MT (V600E), KRAS WT
Experimental: (§1) The proliferation assays in selected colorectal cancer cell lines were measured using a 3-(4,5-dimethyl thiazol-2-yl)-2,5-diphenyl tetrazolium bromide (MTT) assay. First of all, cultured cells were seeded into 96-well plates (2000–5000 cells per well). After incubation for 24 h, the cells were pretreated with DMSO or AZ304 for 1 h. […] Cells were incubated for a further 48 or 72 h. For EGF stimulating assay, cells were incubated in reduced serum medium overnight and then treated with AZ304 or AZ304 + EGF (20 ng/ml) for 72 h. Twenty microliter of MTT solution (5 mg/ml) was added to each well followed by 4 h incubation at 37 °C. The cell culture medium was removed and the cells were lysed in 200 μl dimethylsulphoxide (DMSO) and the results were measured using a microplate reader (Model 550, Bio-Rad Laboratories, Hercules, CA, USA).

DiFi cells = assay: MTT proliferation assay; format: cell-based; settings: Homo sapiens, BRAF WT, KRAS WT
Experimental: as §1

Caco-2 cells = assay: MTT proliferation assay; format: cell-based; settings: Homo sapiens, Caco-2, BRAF WT, KRAS WT
Experimental: as §1

RKO cells = assay: MTT proliferation assay; format: cell-based; settings: Homo sapiens, BRAF MT (V600E), KRAS WT
Experimental: as §1

CDK4 = CDK4 (Homo sapiens, UniProt P11802); assay: AlphaScreen kinase assay (Rb peptide); format: biochemical; settings: ATP Km
Sequence of CDK4 (P11802 whole entry, species assumed): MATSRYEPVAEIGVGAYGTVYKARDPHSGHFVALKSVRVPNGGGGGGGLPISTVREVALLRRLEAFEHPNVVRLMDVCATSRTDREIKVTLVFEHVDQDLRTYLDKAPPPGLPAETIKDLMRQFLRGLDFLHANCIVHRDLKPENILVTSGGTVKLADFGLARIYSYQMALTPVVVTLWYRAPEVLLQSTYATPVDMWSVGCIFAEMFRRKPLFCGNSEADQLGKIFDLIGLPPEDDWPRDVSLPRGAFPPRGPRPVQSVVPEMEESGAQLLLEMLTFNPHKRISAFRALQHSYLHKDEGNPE
Sequence of CDK4 (P24385 whole entry partner, species assumed): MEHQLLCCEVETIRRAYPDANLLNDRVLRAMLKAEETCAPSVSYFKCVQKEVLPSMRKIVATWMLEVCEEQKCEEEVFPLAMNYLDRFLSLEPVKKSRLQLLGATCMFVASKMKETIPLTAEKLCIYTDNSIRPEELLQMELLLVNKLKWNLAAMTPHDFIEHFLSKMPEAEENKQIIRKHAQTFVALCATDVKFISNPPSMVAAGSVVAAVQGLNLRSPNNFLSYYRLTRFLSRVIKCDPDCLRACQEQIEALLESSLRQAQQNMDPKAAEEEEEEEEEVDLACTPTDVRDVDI
Experimental: (§2) For RAF kinases, detailed assay information was described in ref.[18] Briefly, the kinase activity of BRAF WT, BRAF V600E, or CRAF was measured using an AlphaScreen assay (Perkin Elmer, MA) monitoring MEK1/2 phosphorylation at Ser217/221. For CDK2 and CDK4 kinases, activity was also measured by AlphaScreen, monitoring phosphorylation of biotin Rb peptide at Ser780. Similarly, MAP3K7, CSF1R and JAK2 kinase activity was measured by phosphorylation of their biotinylated substrates MKK6 kinase dead protein at Ser271/Thr275, or tyrosine phosphorylation of pEY or Tyk2 Tyr1054/1055 peptides, respectively. CSK, IGF1R, EGFR, FGFR1 and SRC kinase activity was measured using a sandwich ELISA detecting phosphorylated poly EAY peptide with a HRP conjugated phosphotyrosine antibody and TMB substrate, while p38 kinase activity was measured by monitoring phosphorylation of MBP protein with radiolabeled ^33P-ATP in a filter binding format. All assays were screened under respective ATP Km conditions and inhibitor IC50s were derived from either 5 (RAF kinases, CDK2, CDK4, MAP3K7, JAK2), 10 (CSK, IGF1R, EGFR, FGFR1, SRC) or 11 (p38, CSF1R) point compound dose response.

CDK2 = CDK2 (Homo sapiens, UniProt P24941); assay: AlphaScreen kinase assay (Rb peptide); format: biochemical; settings: ATP Km
Experimental: as §2

MC-F7 cells = assay: Western blot p-ERK and p-p38; format: cell-based, human; settings: MC-F7 (BRAF/RAS WT)
Experimental: (§3) For western-blotting in A375, A549 and MC-F7 cell lines, the detailed method was described in ref.[18] […] For western-blot in selected CRC cell lines, the cells were collected after treatment for indicated time and washed twice with cold PBS. Then cells were lysed in 1% Triton lysis buffer (50 mmol/L Tris-HCl, pH 7.4, 10 mmol/L EDTA, 100 mmol/L NaF, 150 mmol/L NaCl, 1% Triton X-100, 1 mmol/L PMSF 1 mmol/L Na3VO4 and 2 μg/mL aprotinin). After sonication and centrifugation, samples were quantified with the Lowry method. Next, all the protein samples were boiled at 95 °C for 5 min with 3× sampling buffer. After that, all the lysate samples were resolved by SDS polyacrylamide gel electrophoresis (SDS-PAGE) and followed by western blotting which means electronically transferred to nitrocellulose membranes. After blocking with 5% skim milk in TBST buffer (10 mM Tris-HCl pH 7.4, 150 mM NaCl, 0.1% Tween 20) at room temperature for 1 h, the blots were incubated with indicated antibodies shaking for 2 h, then overnight at 4 °C. Then the blots were washed four times with TBST buffer, and then incubated with secondary antibodies for 30 min at room temperature. After washing for another four times, the protein bands were detected with enhanced chemiluminescence reagent (SuperSignal Western Pico Chemiluminescent Substrate; Pierce, Rockford, IL, USA) and visualised with the Electrophoresis Gel Imaging Analysis System (DNR Bio-Imaging Systems, Jerusalem, Israel).
(§4) Cells were incubated with DMSO or AZ304 for 75 min and p-ERK levels were determined using a p-ERK antibody based ELISA. […] Cells were incubated with DMSO or AZ304 (±EGF) for 75 min and p-ERK levels were determined using a p-ERK antibody based ELISA. […] (A375: BRAF V600E, A549: RAS MT; MC-F7: BRAF/RAS WT)

A549 cells = assay: Western blot p-ERK and p-p38; format: cell-based, human
Experimental: as §3, §4

BRAF = BRAF (Homo sapiens, UniProt P15056); assay: AlphaScreen kinase assay (MEK1/2 phosphorylation); format: biochemical; settings: wild type BRAF, ATP Km
Sequence of BRAF (P15056 457-717 limits assumed): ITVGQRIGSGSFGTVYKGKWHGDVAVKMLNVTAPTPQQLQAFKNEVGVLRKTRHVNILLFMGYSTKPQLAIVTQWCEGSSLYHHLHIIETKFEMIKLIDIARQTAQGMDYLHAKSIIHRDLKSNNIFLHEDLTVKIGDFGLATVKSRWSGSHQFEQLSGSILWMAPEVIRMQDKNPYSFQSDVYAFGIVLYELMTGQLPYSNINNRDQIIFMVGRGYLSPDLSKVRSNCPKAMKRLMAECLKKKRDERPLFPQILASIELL
Experimental: as §2

CRAF = CRAF (Homo sapiens, UniProt P04049); assay: AlphaScreen kinase assay (MEK1/2 phosphorylation); format: biochemical; settings: wild type CRAF, ATP Km
Sequence of CRAF (P04049 349-609 limits assumed): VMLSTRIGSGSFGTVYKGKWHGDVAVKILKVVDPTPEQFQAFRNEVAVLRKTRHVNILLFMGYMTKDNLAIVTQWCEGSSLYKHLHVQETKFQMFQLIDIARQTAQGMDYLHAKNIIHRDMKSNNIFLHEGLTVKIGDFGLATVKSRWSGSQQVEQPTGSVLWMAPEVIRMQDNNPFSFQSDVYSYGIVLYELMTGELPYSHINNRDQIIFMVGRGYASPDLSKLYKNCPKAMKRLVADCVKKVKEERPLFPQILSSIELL
Experimental: as §2

BRAFV600E = BRAFV600E (Homo sapiens, UniProt P15056, V600E); assay: AlphaScreen kinase assay (MEK1/2 phosphorylation); format: biochemical; settings: ATP Km
Sequence of BRAFV600E (P15056 457-717 V600E limits assumed): as the sequence (P15056 457-717 limits assumed) above, with V144E counted along it
Experimental: as §2

[1] = 48 h, read-out: GI50 (μM) of AZ304 48 h
[2] = 72 h, read-out: GI50 (μM) of AZ304 72 h

With `COc1ccc2c(Nc3cc(NC(=O)c4cccc(C(C)(C)C#N)c4)ccc3C)ncnc2c1` [AZ304] the GI50 (HT-29 cells; [1]) was 3.9 µM, the GI50 (HT-29 cells; [2]) was 0.389 µM and the GI50 (DiFi cells; [1]) was 4.99 µM. It also gave a GI50 (DiFi cells; [2]) of 0.635 µM, a GI50 (Caco-2 cells; [1]) of 1.76 µM and a GI50 (Caco-2 cells; [2]) of 0.377 µM. For the same compound, the GI50 (RKO cells; [1]) was 4.54 µM, the GI50 (RKO cells; [2]) was 0.503 µM and the IC50 (CDK4) was greater than 10000 nM. For the same compound, the IC50 (CDK2) was greater than 10000 nM, the “effect on p-p38” value (MC-F7 cells; 75 min) was “potently inhibited p-p38” and the “effect on p-ERK” value (MC-F7 cells; 75 min, 0.1, 1, 10 and 100 fold of A375 p-ERK EC50) was “concentration dependent reduction of p-ERK”. For the same compound, the “effect on p-p38” value (A549 cells; A549 (RAS MT), 75 min) was “potently inhibited p-p38”, the “effect on p-ERK” value (A549 cells; A549 (wild type BRAF, RAS MT), 75 min, 0.1, 1, 10 and 100 fold of A375 p-ERK EC50) was “concentration dependent reduction of p-ERK” and the IC50 (BRAF) was 79 nM. The IC50 (CRAF) was 68 nM and the IC50 (BRAFV600E) was 38 nM.
